Laboratory results published in ChEMBL document CHEMBL4190183 (Medchemcomm, 2016).
Active and inactive are the calls of the source. The rule behind the calls is not given here.

Columns and labels:
[1] = molecular target: T1, DNA ligase 1 (Homo sapiens, UniProt P18858); assay: Inhibition of human DNA ligase 1 expressed in Escherichia coli BL21(DE3)RP cells assessed as reduction in fluorescently labelled ds nicked DNA substrate ligation at 100 uM after 30 mins by urea gel based imaging method relative to control
T1 sequence (P18858 whole entry): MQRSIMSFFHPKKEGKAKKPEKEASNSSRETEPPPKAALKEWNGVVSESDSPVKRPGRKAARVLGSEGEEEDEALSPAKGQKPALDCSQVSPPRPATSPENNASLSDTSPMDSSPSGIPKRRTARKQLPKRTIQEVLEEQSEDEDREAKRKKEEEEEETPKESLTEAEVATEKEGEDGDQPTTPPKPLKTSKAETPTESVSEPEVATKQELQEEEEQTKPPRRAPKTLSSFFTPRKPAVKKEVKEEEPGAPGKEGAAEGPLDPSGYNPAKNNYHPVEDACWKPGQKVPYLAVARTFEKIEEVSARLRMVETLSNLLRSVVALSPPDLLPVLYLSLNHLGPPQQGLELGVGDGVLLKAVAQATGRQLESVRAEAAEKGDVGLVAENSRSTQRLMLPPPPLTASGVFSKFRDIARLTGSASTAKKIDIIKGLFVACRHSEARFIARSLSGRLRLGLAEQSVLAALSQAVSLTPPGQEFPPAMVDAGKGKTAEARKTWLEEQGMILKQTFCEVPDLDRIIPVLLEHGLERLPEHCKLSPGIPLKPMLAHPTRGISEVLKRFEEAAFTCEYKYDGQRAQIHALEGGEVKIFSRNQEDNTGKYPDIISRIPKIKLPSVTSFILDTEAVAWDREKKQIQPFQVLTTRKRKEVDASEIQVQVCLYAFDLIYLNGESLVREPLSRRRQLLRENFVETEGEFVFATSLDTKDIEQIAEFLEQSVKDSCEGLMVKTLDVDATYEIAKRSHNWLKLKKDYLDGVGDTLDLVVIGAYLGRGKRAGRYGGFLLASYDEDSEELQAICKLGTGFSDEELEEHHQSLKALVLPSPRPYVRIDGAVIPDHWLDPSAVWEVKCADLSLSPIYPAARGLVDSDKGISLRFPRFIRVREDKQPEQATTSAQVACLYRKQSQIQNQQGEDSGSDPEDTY

[2] = test system: HepG2; assay: Cytotoxicity against human HepG2 cells assessed as cell death at 10 uM after 48 hrs by MTT assay relative to control; assay type: functional
[3] = test system: A549; assay: Cytotoxicity against human A549 cells assessed as cell death at 10 uM after 48 hrs by MTT assay relative to control; assay type: functional
[4] = test system: HCT-116; assay: Cytotoxicity against human HCT116 cells assessed as cell death at 10 uM after 48 hrs by MTT assay relative to control; assay type: functional
[5] = test system: DLD-1; assay: Cytotoxicity against human DLD1 cells assessed as cell death at 10 uM after 48 hrs by MTT assay relative to control; assay type: functional
[6] = test system: MDA-MB-231; assay: Cytotoxicity against human MDA-MB-231 cells assessed as cell death at 10 uM after 48 hrs by MTT assay relative to control; assay type: functional
[7] = test system: HEK293; assay: Cytotoxicity against HEK293 cells assessed as cell death at 10 uM after 48 hrs by MTT assay relative to control; assay type: cell-based; conditions: human, hek293, 48 h
[8] = molecular target: T1, DNA ligase 1; assay: Residual activity of human DNA ligase 1 expressed in Escherichia coli BL21(DE3)RP cells assessed as DNA ligation at 100 uM using fluorescently labelled ds nicked DNA as substrate after 30 mins by urea gel based imaging method relative to control
[9] = Retention time of the compound by LC-MS/MS analysis; assay type: physicochemical
[10] = test system: HepG2; assay: Induction of cell death in human HepG2 cells at 0.625 uM after 48 hrs by MTT assay; assay type: functional, cell-based

| SMILES | inhibition [1] | Activity [2] | Activity [3] | Activity [4] | Activity [5] | Activity [6] | Activity [7] | ligation [8] | Retention_time [9] | Activity [10] |
| --- | --- | --- | --- | --- | --- | --- | --- | --- | --- | --- |
| CCOC(=O)C1=C(C)NC(=S)NC1c1cc(/C=N/NC(=S)Nc2ccc(C)cc2)c(O)c(C(C)(C)C)c1 (stereo unspecified) | 68.9% | 23.5% | 9.3% | 50.5% | 45.7% | 3.3% | 40.2% | 31.1% |  |  |
| CCOC(=O)C1=C(C)NC(=O)NC1c1cc(/C=N/NC(=O)Nc2ccc(Br)cc2)c(O)c(C(C)(C)C)c1 (stereo unspecified) | 84% | 65.3% | 45.3% | 57.2% | 60.2% | 44.8% | 35.3% | 16% |  |  |
| CCOC(=O)C1=C(C)NC(=O)NC1c1cc(/C=N/NC(=O)Nc2ccc(F)cc2)c(O)c(C(C)(C)C)c1 (stereo unspecified) | 84.7% | 37.1% | 39.3% | 17.5% | 19.1% | 43.7% | 46.8% | 15.3% |  |  |
| CCOC(=O)C1=C(C)NC(=O)NC1c1cc(/C=N/NC(N)=S)c(O)c(C(C)(C)C)c1 (stereo unspecified) | 80.4% | 11.1% | 17% | 7.8% | 5.5% | 21.1% | 17% | 19.6% |  |  |
| CCOC(=O)C1=C(C)NC(=O)NC1c1cc(/C=N/NC(=S)NC)c(O)c(C(C)(C)C)c1 (stereo unspecified) | 80.8% | 23.7% | 27.3% | 22.5% | 34.1% | 29.7% | 24.6% | 19.2% |  |  |
| OC(Cn1cncn1)(Cn1cncn1)c1ccc(F)cc1F [FLUCONAZOLE] |  |  |  |  |  |  |  |  | 2.08 min |  |
| CCOC(=O)C1=C(C)NC(=O)NC1c1cc(C)c(O)c(/C=N/NC(=S)NC)c1 (stereo unspecified) | 80.4% | 33.1% | 14% | 17.7% | 18.1% | 31% | 22.7% | 19.6% |  |  |
| CCOC(=O)C1=C(C)NC(=O)NC1c1cc(/C=N/NC(=S)Nc2ccc(Cl)cc2)c(O)c(C(C)(C)C)c1 (stereo unspecified) | 80.9% | 78.9% | 53.3% | 82.5% | 43% | 83.6% | 53.1% | 19.1% |  |  |
| CCOC(=O)C1=C(C)NC(=O)NC1c1cc(C=O)c(O)c(C(C)(C)C)c1 (stereo unspecified) | 73.6% | 11.4% | 25.4% | 1.8% | 8.1% | 20.7% | 10.7% | 26.4% |  |  |
| CCOC(=O)C1=C(C)NC(=O)NC1c1cc(C)c(O)c(/C=N/NC(N)=O)c1 (stereo unspecified) | 64.3% | 9.7% | 7% | 4.3% | -3% | 13.9% | 15.7% | 35.7% |  |  |
| CCOC(=O)C1=C(C)NC(=O)NC1c1cc(/C=N/NC(N)=O)c(O)c(C(C)(C)C)c1 (stereo unspecified) | 77.6% | 0.7% | 9.1% | 2.6% | 19.9% | 18.4% | 14% | 22.4% |  |  |
| CCOC(=O)C1=C(C)NC(=S)NC1c1cc(/C=N/NC(=O)Nc2ccccc2)c(O)c(C(C)(C)C)c1 (stereo unspecified) | 80.9% | 26% | 26.8% | 17.9% | 17.6% | 7% | 53.3% | 19.1% |  |  |
| CCOC(=O)C1=C(C)NC(=S)NC1c1cc(/C=N/NC(=S)Nc2ccccc2)c(O)c(C(C)(C)C)c1 (stereo unspecified) | 66.8% | 26.5% | 29.6% | 49.9% | 67.6% | 26.1% | 54.1% | 33.2% |  |  |
| CCOC(=O)C1=C(C)NC(=S)NC1c1cc(/C=N/NC(=O)Nc2ccc(Cl)cc2)c(O)c(C(C)(C)C)c1 (stereo unspecified) | 77.1% | 81.3% | 54% | 63.3% | 17.1% | 13.8% | 65.7% | 22.9% |  |  |
| CCOC(=O)C1=C(C)NC(=S)NC1c1cc(C)c(O)c(/C=N/NC(=O)Nc2ccc(Cl)cc2)c1 (stereo unspecified) | 86.7% | 22.8% | 12.8% | 50.8% | 1% | 20.2% | 42.6% | 13.4% |  |  |
| CCOC(=O)C1=C(C)NC(=O)NC1c1cc(/C=N/NC(=S)Nc2ccccc2)c(O)c(C(C)(C)C)c1 (stereo unspecified) | 88.1% | 43% | 48.7% | 43.2% | 30% | 50.4% | 48.3% | 12% |  |  |
| COc1cccc2c1C(=O)c1c(O)c3c(c(O)c1C2=O)C[C@@](O)(C(=O)CO)C[C@@H]3O[C@H]1C[C@H](N)[C@H](O)[C@H](C)O1 |  |  |  |  |  |  |  |  |  | Active |
| CCOC(=O)C1=C(C)NC(=O)NC1c1cc(C)c(O)c(/C=N/NC(N)=S)c1 (stereo unspecified) | 84.1% | 23.3% | 4.7% | 1.3% | 6.2% | 10.7% | 6.7% | 15.9% |  |  |
| CCOC(=O)C1=C(C)NC(=S)NC1c1cc(/C=N/NC(=S)Nc2ccc(Cl)cc2)c(O)c(C(C)(C)C)c1 (stereo unspecified) | 79.4% | 28.9% | 24.5% | 57.8% | 15.5% | 17.3% | 52.7% | 20.6% |  |  |
| CCOC(=O)C1=C(C)NC(=O)NC1c1cc(C)c(O)c(C=O)c1 (stereo unspecified) | 76.9% | 18.3% | 34.7% | 5.7% | 14.7% | 32.5% | 9.2% | 23.1% |  |  |
